This note sets out measurements from ChEMBL document CHEMBL1949559, “Discovery of a new class of potent prolylcarboxypeptidase inhibitors derived from alanine” (Bioorg Med Chem Lett, 2012).

Data set [1] addresses T1, Lysosomal Pro-X carboxypeptidase (Mus musculus, UniProt Q7TMR0).
T1 sequence (Q7TMR0 whole entry): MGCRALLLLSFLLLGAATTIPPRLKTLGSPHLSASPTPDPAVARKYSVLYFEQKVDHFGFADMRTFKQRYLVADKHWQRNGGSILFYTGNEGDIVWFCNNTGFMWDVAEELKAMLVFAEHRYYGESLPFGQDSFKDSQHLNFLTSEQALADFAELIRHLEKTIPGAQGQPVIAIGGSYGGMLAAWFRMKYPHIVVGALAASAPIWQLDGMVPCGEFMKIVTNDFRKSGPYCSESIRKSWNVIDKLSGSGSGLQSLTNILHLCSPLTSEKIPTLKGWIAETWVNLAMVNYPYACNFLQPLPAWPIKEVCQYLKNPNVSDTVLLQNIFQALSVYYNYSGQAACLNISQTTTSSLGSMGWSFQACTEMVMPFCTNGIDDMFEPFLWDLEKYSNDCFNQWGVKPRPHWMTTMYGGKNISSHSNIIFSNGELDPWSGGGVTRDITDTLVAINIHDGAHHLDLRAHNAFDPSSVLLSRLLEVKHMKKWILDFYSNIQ
The experiment in a line: Inhibition of PrCP-mediated angiotensin3 cleavage in mouse plasma using exogenous angiotensin III as substrate for 8 mins by LC/MS analysis.

The target of data set [2] is T2, Lysosomal Pro-X carboxypeptidase (Homo sapiens, UniProt P42785).
T2 sequence (P42785 whole entry): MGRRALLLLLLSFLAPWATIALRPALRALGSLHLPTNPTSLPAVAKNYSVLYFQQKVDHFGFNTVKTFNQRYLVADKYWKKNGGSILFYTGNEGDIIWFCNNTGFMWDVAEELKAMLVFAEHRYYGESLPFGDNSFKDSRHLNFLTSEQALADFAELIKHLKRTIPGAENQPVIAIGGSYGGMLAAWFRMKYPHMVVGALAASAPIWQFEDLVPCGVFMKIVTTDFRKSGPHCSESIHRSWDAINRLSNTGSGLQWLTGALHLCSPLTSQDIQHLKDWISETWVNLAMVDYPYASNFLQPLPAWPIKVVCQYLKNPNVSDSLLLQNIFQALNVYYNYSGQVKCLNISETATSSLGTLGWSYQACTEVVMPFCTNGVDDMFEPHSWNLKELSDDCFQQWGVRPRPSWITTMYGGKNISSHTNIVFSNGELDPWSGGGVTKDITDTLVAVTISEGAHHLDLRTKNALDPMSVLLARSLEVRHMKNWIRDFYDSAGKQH
The experiment in a line: Inhibition of human recombinant PrCP using Mca-Ala-Pro-Lys(Dnp)-OH as substrate for 30 mins by continuous fluorimetric assay.

Data set [3] has as its target T3, Lysosomal Pro-X carboxypeptidase (Homo sapiens) (UniProt P42785).
T3 sequence (whole entry): T2 sequence (P42785 whole entry)
The experiment in a line: Inhibition of human recombinant PrCP using Mca-Ala-Pro-Lys(Dnp)-OH as substrate at 5 uM for 30 mins by continuous fluorimetric assay.

Data set [4] concerns the target T3, Lysosomal Pro-X carboxypeptidase (Homo sapiens). Briefly: Inhibition of human recombinant PrCP using Mca-Ala-Pro-Lys(Dnp)-OH as substrate at 0.5 uM for 30 mins by continuous fluorimetric assay.
Data set [5] can be described thus: Clearance in mouse at 1 mg/kg, iv and 2 mg/kg, po. The settings on record: in vivo. The data set is classed as ADME, organism-based.
The nature of data set [6]: Half life in mouse at 1 mg/kg, iv and 2 mg/kg, po. The data set is classed as ADME, organism-based. The note with it: in vivo.
Data set [7] in a line: Volume of distribution at steady state in mouse at 1 mg/kg, iv and 2 mg/kg, po. The data set is classed as ADME, organism-based. The note with it: in vivo, read-out: Vdss.
Data set [8] concerns the target T1, Lysosomal Pro-X carboxypeptidase. Briefly: Inhibition of mouse recombinant PrCP using Mca-Ala-Pro-Lys(Dnp)-OH as substrate for 30 mins by continuous fluorimetric assay.
Data set [9] can be described thus: Oral bioavailability in mouse at 2 mg/kg. The data set is classed as ADME, organism-based. The note with it: in vivo.
Data set [10] concerns Mus musculus. Briefly: Dose normalized AUC in mouse at 2 mg/kg, po. It counts as ADME, organism-based. Details: dose 2 mg/kg, route oral. The note with it: in vivo.

With `C[C@H](NC(=O)[C@@H](NC(=O)C(C)(C)O)[C@@H](C)c1ccc(OCC(F)(F)F)cc1)c1nc2cc(Cl)c(Cl)cc2[nH]1`, it took 45 nM to reach half-maximal inhibition in [1] (IC50).

With `O=C(CCc1ccc(-c2ccccc2)cc1)NCc1nc2cc(Cl)c(Cl)cc2[nH]1`, the IC50 (usually the midpoint of a concentration-inhibition curve) in data set [2] is over 10000 nM.

In turn, `C[C@H](NC(=O)[C@@H](NC(=O)C(C)(C)O)[C@@H](C)c1ccc(-c2cn[nH]c2)cc1)c1nc2cc(Cl)c(Cl)cc2[nH]1` yielded an IC50 in data set [1] of 78 nM.

Compound `C[C@H](NC(=O)[C@@H](NC(=O)C(C)(C)N)[C@@H](C)c1ccc(OCC(F)(F)F)cc1)c1nc2cc(Cl)c(Cl)cc2[nH]1` gave an IC50 in data set [1] of 92 nM.

Turning to `O=C(CCCOc1ccccc1)N[C@@H](Cc1ccccc1)c1ncc(-c2ccc(F)cc2)[nH]1`, the inhibition (in general, the percentage by which the read-out fell short of the control) in [3] was determined as 13%; in data set [4] it was 3%.

On to `COc1cccc(-c2cnc([C@H](C)NC(=O)CCCOc3ccccc3)[nH]2)c1`, for which the inhibition was determined as 90% in [3] and 65% in [4].

Take `C[C@H](NC(=O)CCN1CCN(c2cccc(F)c2)CC1)c1nc2cc(Cl)c(Cl)cc2[nH]1`: the IC50 in data set [1] is 5000 nM.

In the case of `C[C@H](NC(=O)[C@@H](NC(=O)C(C)(C)N)[C@@H](C)c1ccc(-c2ccccc2)cc1)c1nc2cc(Cl)c(Cl)cc2[nH]1`, the clearance in data set [5] came out at 58 mL/min/kg. The half-life (commonly how long it takes for the measured level to halve) in data set [6] is 4 h. Also, the Vd in data set [7] is 14 L/kg. The IC50 in data set [8] came to 0.039 nM; in data set [1], 22 nM. The bioavailability – broadly, dose-corrected exposure relative to a reference, in per cent – in [9] amounted to 17%. The compound further registered an AUC/dose in [10] of 0.52 µM·kg·h/mg.

On to `COc1cccc(-c2cnc(C(NC(=O)CCCOc3ccccc3)C3CCCCC3)[nH]2)c1` (configuration not stated), for which the values for the inhibition in [3] and in data set [4] were 31% and 7%, respectively.

`C[C@H](NC(=O)CCN1CCN(c2ccc(F)cc2)CC1)c1nc2cc(Cl)c(Cl)cc2[nH]1` had an IC50 in data set [1] of 20000 nM.

With `C[C@H](NC(=O)[C@@H](N)Cc1cccc(C#N)c1)c1nc2cc(Cl)c(Cl)cc2[nH]1`, the midpoint of inhibition in data set [1], the IC50, lay at 5000 nM.

Take `CC(C)(C)OC(=O)N[C@@H](Cc1ccc(-c2ccccc2)cc1)C(=O)N1CCCC[C@H]1c1nc2cc(Cl)c(Cl)cc2[nH]1`: the IC50 in [2] was over 10000 nM.

On to `C[C@H](NC(=O)[C@H](Cc1ccc(-c2ccccc2)cc1)NCC(C)(C)N)c1nc2cc(Cl)c(Cl)cc2[nH]1`, for which, in data set [1], the IC50 stood at 585 nM.

Consider `Clc1cc2nc(-c3cccnc3NCCc3ccc(-c4ccccc4)cc3)[nH]c2cc1Cl`, for which the IC50 in [2] is over 10000 nM.

`CC(C)(NC(=O)CCN1CCC(c2ccccc2)CC1)c1nc2cc(Cl)c(Cl)cc2[nH]1`: the IC50 in [2] stood at 181 nM.

On to `C[C@H](NC(=O)[C@H](Cc1cccc(C#N)c1)NC(=O)C(C)(C)N)c1nc2cc(Cl)c(Cl)cc2[nH]1`, for which the half-maximal inhibitory concentration (IC50) in data set [8] came out at 128 nM; in [1], 1600 nM.

Regarding `Clc1cc2nc(-c3cccnc3OCCc3ccc(-c4ccccc4)cc3)[nH]c2cc1Cl`, the IC50 in data set [2] was over 10000 nM.
